Data taken from patent US20240228572A1 (i2o Therapeutics, Inc., priority 2020, published 2024).
*1 amine or outer side, *2 acyl side, *3 side chain or, on linkers, in order; H or OH if unused. Where a SMILES comes first, the peptide text is derived from it. Bridges are numbered along the chain shown (N, C = ends). Side-chain parts run from the residue outwards. [ ]: non-standard residue; d: D form. The star is where a group is joined. C20 diacid = O=C(O)CCCCCCCCCCCCCCCCCCC(=O)*; γGlu = O=C(O)[C@H](CCC(=O)[*:2])N[*:1]; AEEA = NCCOCCOCC(=O)O; Aib = CC(C)(N)C(=O)O

Columns and labels:
[1] = molecular target: T1, human Glucagon receptor (GCGR) (Homo sapiens, UniProt P47871); assay: cAMP accumulation assay, CHO-K1 cells expressing human GCGR; type: cell-based; details: mean pEC50, Table 10
T1 construct: A cDNA fragment encoding the full-length open reading frame of the human GCGR; expressed in transfected cells; host or cells: CHO-K1, pcDNA3.1+, Lipofectamine 2000
T1 sequence (P47871 26-477): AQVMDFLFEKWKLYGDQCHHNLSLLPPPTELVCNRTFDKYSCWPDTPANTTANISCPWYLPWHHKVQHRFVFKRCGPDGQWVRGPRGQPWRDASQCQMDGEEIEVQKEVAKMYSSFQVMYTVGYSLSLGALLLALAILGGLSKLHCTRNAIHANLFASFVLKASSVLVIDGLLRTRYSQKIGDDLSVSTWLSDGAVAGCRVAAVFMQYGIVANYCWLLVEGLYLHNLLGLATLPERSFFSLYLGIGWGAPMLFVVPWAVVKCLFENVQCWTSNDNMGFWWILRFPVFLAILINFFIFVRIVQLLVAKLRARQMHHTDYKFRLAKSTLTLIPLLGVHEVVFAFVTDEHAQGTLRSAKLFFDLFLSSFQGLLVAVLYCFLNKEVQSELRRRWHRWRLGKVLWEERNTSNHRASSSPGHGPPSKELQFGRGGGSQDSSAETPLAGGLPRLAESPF
Text: In the presence of the non-specific cAMP/cGMP phosphodiesterase inhibitor, 3-isobutyl-1-methylxanthine (IBMX), accumulating cAMP can be measured in vitro using common detection methods. Thus, it is possible to estimate an in vitro potency (pEC50) for peptides activating each of these receptors using fit dose-response curves for cAMP accumulation.
A cDNA fragment encoding the full-length open reading frame of the cynomolgus monkey GLP-1R (Genebank accession #XM_028847603 was cloned into pcDNA3.1+ for expression in CHO-K1 cells. A cDNA fragment encoding the full-length open reading frame of the human GCGR (Genebank accession #NM_000160 was cloned into pcDNA3.1+ for expression in CHO-K1 cells. A cDNA fragment encoding the full-length open reading frame of the rat GCGR (Genebank accession #NM_12091 was cloned into pcDNA3.1+ for expression in CHO-K1 cells. A cDNA fragment encoding the full-length open reading frame of the cynomolgus monkey GCGR (Genebank accession #XM_005585255 was cloned into pcDNA3.1+ for expression in CHO-K1 cells.
On day 1, CHO-K1 cells were plated at 1.5 million cells per T75 flask in 90% F12-K media supplemented with 10% FBS. On day 3 cells were transfected with 40 mcg of each expression plasmid using Lipofectamine 2000 transfection reagent. On day 5, cells were dispensed at 1000 cells per well in white 384-well OptiPlates in 5 mcL of assay buffer consisting of 1×HBSS, 5 mM HEPES, 0.5 mM IBMX, and 0.1% casein.
Peptides were serially diluted 4-fold in assay buffer to final concentrations ranging from 1×10^−9 M to 9.5×10^−16 M. Two assay controls consisting of 50 mcM forskolin (cAMP system maximum) or assay buffer only (cAMP system minimum) were also prepared. Five microliters of each peptide-concentration, or assay control, was added to triplicate wells and incubated for thirty minutes at room temperature. During this incubation step a 4× europium labelled cAMP tracer solution and a 4× Ulight®-anti-cAMP solution (consisting of an anti-cAMP monoclonal antibody labelled with Ulight™ dye) was prepared according to the manufacturer's protocol (PerkinElmer LANCE Ultra cAMP kit). Following this incubation, 5 mcL europium labelled cAMP and 5 mcL Ulight anti-cAMP antibody was added to each well. The plate was covered to prevent evaporation and incubated for 60 minutes at room temperature in the dark. Plates were read on an Envision fluorescent plate reader (PerkinElmer).
Test values were first normalized to the system maximum and system minimum averaged values in Excel using the formula: (test value−system min average)/(system max average -system min average)*100. Normalized test values represent a baseline corrected percentage of the system maximum cAMP response induced by forskolin. Data from up to 3 replicate tests were analyzed for each peptide. Potency values were estimated using GraphPad Prism software (v7.04) by fitting data to a 4-parameter logistic curve model: Y=Bottom+(Top−Bottom)/(1+10^((LogEC50−X))). The Hill slope was constrained to 1.0. EC50 values were converted to pEC50 values using the formula: pEC50=−Log (EC50).

[2] = molecular target: T2, human GLP-1 receptor (GLP-1R) (Homo sapiens, UniProt P43220); assay: cAMP accumulation assay, CHO-K1 cells stably expressing human GLP-1R; type: cell-based; details: cAMP accumulation, mean pEC50, Table 10
T2 construct: expressed in transfected cells
T2 sequence (P43220 24-463): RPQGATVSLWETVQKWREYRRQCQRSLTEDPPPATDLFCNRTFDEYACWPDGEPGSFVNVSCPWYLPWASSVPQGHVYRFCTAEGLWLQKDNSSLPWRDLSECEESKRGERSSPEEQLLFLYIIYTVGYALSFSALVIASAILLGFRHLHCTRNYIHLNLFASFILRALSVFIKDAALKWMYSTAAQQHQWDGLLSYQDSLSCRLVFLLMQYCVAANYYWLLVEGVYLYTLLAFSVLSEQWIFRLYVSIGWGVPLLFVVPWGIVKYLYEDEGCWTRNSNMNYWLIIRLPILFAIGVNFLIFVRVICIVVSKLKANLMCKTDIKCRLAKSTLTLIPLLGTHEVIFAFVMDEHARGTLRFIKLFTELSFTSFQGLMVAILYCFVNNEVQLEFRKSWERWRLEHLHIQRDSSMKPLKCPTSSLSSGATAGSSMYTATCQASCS

Row | Compound | EC50 [1] | EC50 [2]
1 | CC(C)C[C@H](NC(=O)[C@H](Cc1ccc(O)cc1)NC(=O)[C@H](CCCCN)NC(=O)[C@H](CO)NC(=O)[C@H](Cc1ccc(O)cc1)NC(=O)[C@H](CC(=O)O)NC(=O)[C@H](CO)NC(=O)[C@@H](NC(=O)[C@H](Cc1ccccc1)NC(=O)[C@@H](NC(=O)CNC(=O)[C@H](Cc1c[nH]cn1)NC(=O)[C@H](CO)NC(=O)[C@@H](N)Cc1ccc(O)cc1)[C@@H](C)O)[C@@H](C)O)C(=O)N[C@@H](CC(=O)O)C(=O)N[C@@H](CCCCNC(=O)CC[C@H](NC(=O)CC[C@H](NC(=O)COCCOCCNC(=O)CCCCCCCCCCCCCCCCCCC(=O)O)C(=O)O)C(=O)O)C(=O)N[C@@H](CCCCN)C(=O)N[C@@H](Cc1ccc(O)cc1)C(=O)N[C@@H](C)C(=O)N[C@H]1CCC(=O)NCCCC[C@@H](C(=O)N[C@@H](Cc2c[nH]c3ccccc23)C(=O)N[C@@H](CC(C)C)C(=O)N[C@@H](CCC(=O)O)C(=O)N[C@@H](CC(=O)O)C(=O)N[C@@H](CCC(=O)O)C(=O)N2CCC[C@H]2C(=O)N[C@@H](CO)C(=O)N[C@@H](CO)C(=O)NCC(=O)N[C@@H](C)C(=O)N2CCC[C@H]2C(=O)N2CCC[C@H]2C(=O)N2CCC[C@H]2C(=O)N[C@@H](CO)C(=O)O)NC(=O)[C@H](C(C)C)NC(=O)[C@H](Cc2ccccc2)NC(=O)[C@H](CCC(=O)O)NC1=O [Compound A12] (H-YSHGTFTSDYSKYLDK([γGlu-γGlu-AEEA-C20 diacid])KYAEEFVKWLEDEPSSGAPPPS-OH; lactam 20-24) | 1.58 pM | > 1000 pM
2 | CC(C)C[C@H](NC(=O)[C@H](Cc1ccc(O)cc1)NC(=O)[C@H](CCCCN)NC(=O)[C@H](CO)NC(=O)[C@H](Cc1ccc(O)cc1)NC(=O)[C@H](CC(=O)O)NC(=O)[C@H](CO)NC(=O)[C@@H](NC(=O)[C@H](Cc1ccccc1)NC(=O)[C@@H](NC(=O)CNC(=O)[C@H](Cc1c[nH]cn1)NC(=O)[C@H](CO)NC(=O)[C@@H](N)Cc1ccc(O)cc1)[C@@H](C)O)[C@@H](C)O)C(=O)N[C@@H](CC(=O)O)C(=O)N[C@@H](CCCCNC(=O)CC[C@H](NC(=O)CC[C@H](NC(=O)CCCCCCCCCCCCCCCCCCC(=O)O)C(=O)O)C(=O)O)C(=O)N[C@@H](CCCCN)C(=O)N[C@@H](Cc1ccc(O)cc1)C(=O)N[C@@H](C)C(=O)N[C@@H](CCC(N)=O)C(=O)N[C@@H](CCC(=O)O)C(=O)N[C@@H](Cc1ccccc1)C(=O)N[C@H](C(=O)NC(C)(C)C(=O)N[C@@H](Cc1c[nH]c2ccccc12)C(=O)N[C@@H](CC(C)C)C(=O)N[C@@H](CCC(=O)O)C(=O)N[C@@H](CC(=O)O)C(=O)N[C@@H](CCC(=O)O)C(=O)N1CCC[C@H]1C(=O)N[C@@H](CO)C(=O)N[C@@H](CO)C(=O)NCC(=O)N[C@@H](C)C(=O)N1CCC[C@H]1C(=O)N1CCC[C@H]1C(=O)N1CCC[C@H]1C(=O)N[C@@H](CO)C(=O)O)C(C)C [Compound A13] (H-YSHGTFTSDYSKYLDK([γGlu-γGlu-C20 diacid])KYAQEFV[Aib]WLEDEPSSGAPPPS-OH) | 1 pM | > 1000 pM
3 | CC(C)C[C@H](NC(=O)[C@H](Cc1ccc(O)cc1)NC(=O)[C@H](CCCCN)NC(=O)[C@H](CO)NC(=O)[C@H](Cc1ccc(O)cc1)NC(=O)[C@H](CC(=O)O)NC(=O)[C@H](CO)NC(=O)[C@@H](NC(=O)[C@H](Cc1ccccc1)NC(=O)[C@@H](NC(=O)CNC(=O)[C@H](Cc1c[nH]cn1)NC(=O)[C@H](CO)NC(=O)[C@@H](N)Cc1ccc(O)cc1)[C@@H](C)O)[C@@H](C)O)C(=O)N[C@@H](CC(=O)O)C(=O)NC(C)(C)C(=O)N[C@@H](CCCCN)C(=O)N[C@@H](Cc1ccc(O)cc1)C(=O)N[C@@H](C)C(=O)N[C@@H](CCC(N)=O)C(=O)N[C@@H](CCCCNC(=O)CC[C@H](NC(=O)CC[C@H](NC(=O)CCCCCCCCCCCCCCCCCCC(=O)O)C(=O)O)C(=O)O)C(=O)N[C@@H](Cc1ccccc1)C(=O)N[C@H](C(=O)NC(C)(C)C(=O)N[C@@H](Cc1c[nH]c2ccccc12)C(=O)N[C@@H](CC(C)C)C(=O)N[C@@H](CCC(=O)O)C(=O)N[C@@H](CC(=O)O)C(=O)N[C@@H](CCC(=O)O)C(=O)N1CCC[C@H]1C(=O)N[C@@H](CO)C(=O)N[C@@H](CO)C(=O)NCC(=O)N[C@@H](C)C(=O)N1CCC[C@H]1C(=O)N1CCC[C@H]1C(=O)N1CCC[C@H]1C(=O)N[C@@H](CO)C(=O)O)C(C)C [Compound A14] (H-YSHGTFTSDYSKYLD[Aib]KYAQK([γGlu-γGlu-C20 diacid])FV[Aib]WLEDEPSSGAPPPS-OH; N-terminus assumed) | 6.31 pM | > 1000 pM
4 | CC(C)C[C@H](NC(=O)[C@H](Cc1ccc(O)cc1)NC(=O)[C@H](CCCCN)NC(=O)[C@H](CO)NC(=O)[C@H](Cc1ccc(O)cc1)NC(=O)[C@H](CC(=O)O)NC(=O)[C@H](CO)NC(=O)[C@@H](NC(=O)[C@H](Cc1ccccc1)NC(=O)[C@@H](NC(=O)CNC(=O)[C@H](Cc1c[nH]cn1)NC(=O)[C@H](CO)NC(=O)[C@@H](N)Cc1ccc(O)cc1)[C@@H](C)O)[C@@H](C)O)C(=O)N[C@@H](CC(=O)O)C(=O)N[C@@H](CCCCNC(=O)CC[C@H](NC(=O)CC[C@H](NC(=O)COCCOCCNC(=O)CCCCCCCCCCCCCCCCCCC(=O)O)C(=O)O)C(=O)O)C(=O)N[C@@H](CCCCN)C(=O)N[C@@H](Cc1ccc(O)cc1)C(=O)N[C@@H](C)C(=O)N[C@@H](CCC(N)=O)C(=O)N[C@@H](CCC(=O)O)C(=O)N[C@@H](Cc1ccccc1)C(=O)N[C@H](C(=O)NC(C)(C)C(=O)N[C@@H](Cc1c[nH]c2ccccc12)C(=O)N[C@@H](CC(C)C)C(=O)N[C@@H](CCC(=O)O)C(=O)N(C)[C@@H](CCC(=O)O)C(=O)N[C@@H](CCC(=O)O)C(=O)N1CCC[C@H]1C(=O)N[C@@H](CO)C(=O)N[C@@H](CO)C(=O)NCC(=O)N[C@@H](C)C(=O)N1CCC[C@H]1C(=O)N1CCC[C@H]1C(=O)N1CCC[C@H]1C(=O)N[C@@H](CO)C(=O)O)C(C)C [Compound A18] | 39.8 pM | > 1000 pM
5 | CC(C)C[C@H](NC(=O)[C@H](Cc1ccc(O)cc1)NC(=O)[C@H](CCCCN)NC(=O)[C@H](CO)NC(=O)[C@H](Cc1ccc(O)cc1)NC(=O)[C@H](CC(=O)O)NC(=O)[C@H](CO)NC(=O)[C@@H](NC(=O)[C@H](Cc1ccccc1)NC(=O)[C@@H](NC(=O)CNC(=O)[C@H](Cc1c[nH]cn1)NC(=O)[C@H](CO)NC(=O)[C@@H](N)Cc1ccc(O)cc1)[C@@H](C)O)[C@@H](C)O)C(=O)N[C@@H](CC(=O)O)C(=O)N[C@@H](CCCCNC(=O)CC[C@H](NC(=O)CC[C@H](NC(=O)COCCOCCNC(=O)CCCCCCCCCCCCCCCCCCC(=O)O)C(=O)O)C(=O)O)C(=O)N[C@@H](CCCCN)C(=O)N[C@@H](Cc1ccc(O)cc1)C(=O)N[C@@H](C)C(=O)N[C@@H](CCCCN)C(=O)N[C@@H](CCC(=O)O)C(=O)N[C@@H](Cc1ccccc1)C(=O)N[C@H](C(=O)NC(C)(C)C(=O)N[C@@H](Cc1c[nH]c2ccccc12)C(=O)N[C@@H](CC(C)C)C(=O)N[C@@H](CCC(=O)O)C(=O)N[C@@H](CO)C(=O)N[C@@H](CCC(=O)O)C(=O)N1CCC[C@H]1C(=O)N[C@@H](CO)C(=O)N[C@@H](CO)C(=O)NCC(=O)N[C@@H](C)C(=O)N1CCC[C@H]1C(=O)N1CCC[C@H]1C(=O)N1CCC[C@H]1C(=O)N[C@@H](CO)C(=O)O)C(C)C [Compound A22] (H-YSHGTFTSDYSKYLDK([γGlu-γGlu-AEEA-C20 diacid])KYAKEFV[Aib]WLESEPSSGAPPPS-OH; N-terminus assumed) | 2 pM | > 1000 pM
